# From patent US10426757B2, “Compositions and methods for promoting intestinal stem cell and/or non-stem progenitor cell function” (Whitehead Institute for Biomedical Research, priority 2014, dated 2019)
# “Also recorded” adds a separate entry of the source.
# What was measured:
# [1] = system: Lgr5-GFP^low progenitors; assay: Organoid formation by sorted Lgr5-GFP^low progenitors; assay type: cell-based, mouse; conditions: progenitors from GW501516-treated mice, vs vehicle
# Description: (§1) Isolated ISCs or progenitor cells were centrifuged for 5 minutes at 250 g, re-suspended in the appropriate volume of crypt culture medium (500-1,000 cells μl^−1), then seeded onto 25-30 μl Matrigel™ (Corning 356231 growth factor reduced) containing 1 μM jagged (Ana-Spec) in a flat bottom 48-well plate (Corning 3548). Alternatively, ISCs and Paneth cells were mixed after sorting in a 1:1 ratio, centrifuged, and then seeded onto Matrigel™. The Matrigel™ and cells were allowed to solidify before adding 300 μl of crypt culture medium. The crypt media was changed every second or third day. Organoid bodies were quantified on days 3, 7 and 10 of culture, unless otherwise specified. With respect to the study results presented in FIGS. 14-16, organoid bodies were quantified on day 3-4. In secondary experiments, individual primary organoids were mechanically dissociated and re-plated, or organoids were dissociated for 10 minutes in TrypLE Express at 32° C., re-suspended with SMEM (Life Technologies), centrifuged and re-suspended in cold SMEM with viability dye 7-AAD. Live cells were sorted and seeded onto Matrigel™ as previously described.
# [2] = system: Lgr5-GFP^hi ISCs and Lgr5-GFP^low progenitors; assay: Flow cytometry enumeration of Lgr5-GFP^hi ISCs and Lgr5-GFP^low progenitors in Lgr5-EGFP-IRES-CreERT2 mice; assay type: in vivo, mouse; conditions: GW501516 4 mg/kg daily IP, 2-4 weeks, vs vehicle
# Description: Mice were housed in the Unit for Laboratory Animal Medicine at the Whitehead Institute for Biomedical Research and Koch Institute for Integrative Cancer Research. Lgr5-EGFP-IRES-CreERT2 mice (strain name: B6.129P2-Lgr5^tm1(cre/ERT2)Cle/J, stock number 008875), and Rosa26-lacZ mice (strain name: B6.129S4-Gt(ROSA)26Sor^tm1Sor/J, stock number 003474) were obtained from the Jackson Laboratory. […] Control mice were age-matched and fed normal chow ad libitum. GW501516 (Enzo) was reconstituted in DMSO at 4.5 mg ml^−1 and diluted 1:10 in a solution of 5% PEG400 (Hampton Research), 5% Tween80 (Sigma), 90% H2O for a daily intraperitoneal injection of 4 mg/kg.
# As previously reported and briefly summarized here, small intestines were removed, washed with cold PBS−/−, opened laterally and cut into 3-5 mm fragments. Pieces were washed multiple times with cold PBS−/− until clean, washed 2-3 with PBS−/−/EDTA (10 mM), and incubated on ice for 90-120 minutes while mixing at 30-minute intervals. Crypts were then mechanically separated from the connective tissue by shaking, and filtered through a 70-μm mesh into a 50-ml conical tube to remove villous material and tissue fragments. At this point the suspension was mainly composed of crypts. […] For ISC isolation, the crypt suspensions were dissociated to individual cells with TrypLE Express (Invitrogen). Cell labeling consisted of an antibody cocktail comprising CD45-PE (eBioscience, 30-F1 1), CD31-PE (Biolegend, Mecl3.3), Ter119-PE (Biolegend, Ter119), CD24-Pacific Blue (Biolegend, M1/69), CD117-APC/Cy7 (Biolegend, 2BS), and EPCAM-APC (eBioscience, G8.8). ISCs were isolated as Lgr5-EGFP^hiEpcam^+CD24^low/−CD31^−Ter119 CD45^−7-AAD^−. EGFP^low progenitors were isolated as EGFP^lowEpcam^+CD24^low/−CD31^−Ter119^−CD45^−7-AAD^−, and Paneth cells were isolated as CD24^hiSidescatter^hiLgr5-EGFP^−Epcam^+CD31^−Ter119^−CD45^−7-AAD^− with a BD FACS Aria II SORP cell sorter into supplemented crypt culture medium for culture. Dead cells were excluded from the analysis with the viability dye 7-AAD (Life Technologies).
# [3] = system: β-catenin; assay: β-catenin nuclear localization by immunostaining; assay type: in vivo, mouse; conditions: GW501516-treated mice vs vehicle
# [4] = system: aged crypts; assay: Stem cell frequency and organoid formation in aged mice; assay type: in vivo, mouse
# Description: as §1, with “described. With respect to the study results presented in FIGS. 14-16, young mice were 2-4 months old. Old mice range from 18-25 months of age. The mice were on a standard chow diet. Mice received a single daily injection with the indicated amount of GW501516 or vehicle in the afternoon. Intestines were harvested the following morning.” for “described.”
# [5] = system: crypt base columnar cells and transit-amplifying cells; assay: BrdU incorporation into ISCs and TA-cells; assay type: in vivo, mouse; conditions: GW501516-treated mice, 4 hours after BrdU pulse
# Description: Mice were housed in the Unit for Laboratory Animal Medicine at the Whitehead Institute for Biomedical Research and Koch Institute for Integrative Cancer Research. Lgr5-EGFP-IRES-CreERT2 mice (strain name: […] B6.129S4-Gt(ROSA)26Sor^tm1Sor/J, stock number 003474) were obtained from the Jackson Laboratory. […] Control mice were age-matched and fed normal chow ad libitum. GW501516 (Enzo) was reconstituted in DMSO at 4.5 mg ml^-1 and diluted 1:10 in a solution of 5% PEG400 (Hampton Research), 5% Tween80 (Sigma), 90% H2O for a daily intraperitoneal injection of 4 mg/kg. Apc exon 14 was excised by tamoxifen suspended in sunflower seed oil (Spectrum […]) at a concentration of 10 mg ml^-1, and 250 μl per 25 g of body weight was administered by intraperitoneal injection to mice twice over 4 days before harvesting tissue. BrdU was prepared at 10 mg ml^-1 in PBS, passed through 0.22 μm filter and injected at 100 mg kg^-1. As previously described^5, tissues were fixed in 10% formalin, paraffin embedded and sectioned. Antigen retrieval was performed with Borg Decloaker RTU solution (Biocare Medical) in a pressurized Decloaking Chamber (Biocare Medical) for 3 minutes. […]
compound,measurement,setting,value
"Cc1cc(SCc2sc(-c3ccc(C(F)(F)F)cc3)nc2C)ccc1OCC(=O)O [GW501516, 2-[2-methyl-4-[[4-methyl-2-[4-(trifluoromethyl)phenyl]-1,3-thiazol-5-yl]methylsulfanyl]phenoxy]acetic acid]",organoid-initiating capacity of Lgr5-GFP^low progenitors,[1],possess the potential to autonomously form organoid bodies; also recorded: conferred organoid-initiating capacity
same,organoid-initiating capacity of Lgr5-GFP^low progenitors,[1]; listed as GW501515,sufficient to enhance
same,organoid-initiating capacity of Lgr5-GFP^low progenitors,[1]; listed as PPAR-δ agonist,capable of forming organoids
same,number of Lgr5-GFP^low progenitors,[2]; 4 mg/kg,not in progenitor cells; also recorded: no effect
same,number/frequency of Lgr5-GFP^hi ISCs,[2]; 4 mg/kg,augmented; also recorded: selective increase; also recorded: doubled the number
same,number/frequency of Lgr5-GFP^hi ISCs,[2]; listed as GW501515,sufficient to enhance
same,nuclear β-catenin in stem and progenitor cells of crypts (intestinal sections),[3],increased nuclear β-catenin localization
same,nuclear β-catenin localization in flow sorted ISCs and progenitors,[3],increased nuclear β-catenin localization
same,nuclear β-catenin in stem and progenitor cells of crypts (intestinal sections),[3]; listed as PPAR-δ agonist,greater percentage
same,nuclear β-catenin localization in flow sorted ISCs and progenitors,[3]; listed as PPAR-δ agonist,more nuclear β-catenin accumulation
same,organoid formation of co-cultured ISCs and Paneth cells from aged animals,"[4]; GW501516 vs old vehicle, day 3",significantly boosts organoid formation
same,frequency of organoid formation in aged crypts,"[4]; aged mice, GW501516 treatment",increases the frequency of organoid formation
same,frequency of stem cells,"[4]; aged mice, GW501516 treatment",increases the frequency of stem cells
same,proliferation of CBC cells and transit-amplifying cells,[5],augmented; also recorded: enhanced the proliferation
